Laboratory results taken from patent US7038021B2, “Anti-dioxins monoclonal antibody suitable for assaying dioxins in environment and hybridoma producing the same” (priority 2004, dated 2006).
≈ marks a conversion by molar mass, not a printed value.

Legend:
[1] = tested on: monoclonal antibody Dx02-I-0; experiment: Cross-reactivity of monoclonal antibody Dx02-I-0 by indirect competitive assay (ELISA, II-1 immobilized); type: binding, mouse; settings: for IC50: indirect competitive assay, immobilized II-1, 20% DMSO and 0.01% Triton-X100, room temperature 10 to 30 minutes; for Cross-reactivity: obtained from IC50 values, 1,2,3,7,8-PeCDF = 100; for reactivity (cross-reactivity) of the antibody: assuming the reactivity with 1,2,3,7,8-PeCDF is 100%
Experimental: According to the method used for determination of the antibody titer, antigen II-1 or II-2 was immobilized onto wells of a microtiter plate and the wells were washed. A solution (300 μl) of Block Ace 4-fold diluted with deionized water was then added to the wells, and the wells were blocked by allowing it to stand at room temperature for 2 hours. The wells were washed three times with the washing solution (300 μl). The supernatant (25 μl) of the culture containing a primary antibody as well as a solution (25 μl) of various concentrations of a phenoxathiin derivative (I-1 or I-2), which is a compound for screening having a structure similar to that of dioxins and having a reduced toxicity, in 20% DMSO and 0.01% Triton-X100, or a solution (25 μl) of various concentrations of dioxins in 20% DMSO and 0.01% Triton-X100, or a solution (25 μl) containing neither the phenoxathiin derivatives nor the dioxins in 20% DMSO and 0.01% Triton-X100 which serves as a control were then added to the wells and mixed in the wells. The wells were allowed to stand at room temperature for 10 to 30 minutes to effect an antigen-antibody reaction.
The wells were washed three times with the washing solution (300 μl). Then, in order to detect the primary antibody which was bound to II-1 or II-2 immobilized onto the plate, a solution (50 μl) of a horseradish peroxidase-labeled anti-mouse IgG (recognizing γ-chain) prepared by 3000-fold diluting with a solution of Block Ace 10-fold diluted with deionized water was added to the wells as a solution of a secondary antibody, and reacted at room temperature for one our. After the wells were again washed three times with the washing solution (300 μl), a TMB solution was added to the wells, and a coloration reaction was effected at room temperature. After 5 to 15 minutes, the reaction was terminated by adding 1 M phosphoric acid (50 μl), and the absorbance at 450 nm was immediately measured using a microplate reader. The ratio (B/B0) of an absorbance value (B) in the well to which one of phenoxathiin derivatives or dioxins was added, to an absorbance value (control OD; B0) in the well to which only a solution of 20% DMSO and 0.01% Triton-X100 was added but neither the phenoxathiin derivatives nor the dioxins were added, was calculated to evaluate the reactivity of the primary antibody. A hybridoma in the well in which a continuously high production of an antibody having a high binding activity against the antigens was recognized was selected, expanded, and cloned by a limiting dilution method.
Using monoclonal antibody Dx02-I-0, the cross-reactivity with 17 kinds of dioxins each having a toxicity value and 12 kinds of coplanar PCBs was evaluated by an indirect competitive assay. II-1 (50 μl) was added to wells in a microtiter plate, and the wells were allowed to stand at room temperature for one hour and then washed. After the wells were blocked, various concentrations of one of dioxins (25 μl) dissolved in 20% DMSO and 0.01% Triton-X100 or a solution (25 μl) of 20% DMSO and 0.01% Triton-X100 not containing any dioxin which serves as a control as well as a solution (25 μl) of the antibody diluted with 0.01 to 0.1% BSA were added to the wells in the plate, and reacted at room temperature for 10 to 30 minutes.
Then, a coloration reaction was effected using a secondary antibody against the antibody bound to the solid phase, i.e. a peroxidase-labeled anti-mouse IgG antibody (recognizing γ-chain) as well as TMB. After the enzyme reaction was terminated, the absorbance at 450 nm was immediately measured. The B/B0 values were plotted for various dioxins, IC50 values were calculated from the resulting figures, and the cross-reactivity of the antibody was obtained from these values (Table 3).

[2] = WHO-TEF, toxicity of 2,3,7,8-TCDD taken as 1; cited from earlier work
[3] = tested on: antibody of non-patent reference 2; settings: assuming the reactivity with 1,2,3,7,8-PeCDF is 100%; cited from earlier work
[4] = tested on: monoclonal antibody Dx02-I-0; experiment: Standard curve by indirect competitive assay, inhibition by 2,3,4,7,8-PeCDF; type: binding, mouse; settings: purified antibody Dx02-I-0, immobilized II-1, FIG. 1
Experimental: II-1 was immobilized onto a microtiter plate at room temperature for one hour, and the plate was washed three Limes with the washing solution (300 μl). A solution (300 μl) of Block Ace prepared by 4-fold diluting with deionized water was then added to the wells, and the wells were blocked at room temperature for 2 hours. The wells were washed three times with the washing solution. […]
The wells were then washed, and a secondary antibody, i.e. a solution (50 μl) of a horseradish peroxidase-labeled anti-mouse IgG (recognizing γ-chain) prepared by 3000-fold diluting with a solution of Block Ace 10-fold diluted with deionized water was added to the wells, and reacted at room temperature for one hour. […] After 5 to 15 minutes, the reaction was terminated by adding 1 M phosphoric acid (50 μl), and the absorbance at 450 nm was immediately measured using a microplate reader. The ratio (B/B0) of an absorbance value (B) in the well to which one of dioxins was added, to control OD (B0) was calculated, and the calculated values were plotted against the concentrations of the added dioxin with single logarithm to obtain a typical sigmoid curve (FIG. 1).

Compound: Clc1cc2c(c(Cl)c1Cl)Oc1c(Cl)c(Cl)c(Cl)c(Cl)c1O2 [1,2,3,4,6,7,8-HpCDD]
- IC50 [1]: >0.1 µg/mL
- Cross-reactivity [1]: <1
- TEF [2]: 0.01

Compound: Clc1cc2c(oc3c(Cl)c(Cl)c(Cl)c(Cl)c32)c(Cl)c1Cl [1,2,3,4,6,7,8-HpCDF]
- IC50 [1]: >0.1 µg/mL
- Cross-reactivity [1]: <1
- TEF [2]: 0.01

Compound: Clc1cc2oc3c(Cl)c(Cl)c(Cl)c(Cl)c3c2c(Cl)c1Cl [1,2,3,4,7,8,9-HpCDF]
- reactivity (cross-reactivity) of the antibody [1]: 34%
- IC50 [1]: 0.00267 µg/mL (≈ 0.00652 µM)
- Cross-reactivity [1]: 34
- TEF [2]: 0.01

Compound: Clc1cc2c(cc1Cl)Oc1c(Cl)c(Cl)c(Cl)c(Cl)c1O2 [1,2,3,4,7,8-HxCDD]
- IC50 [1]: >0.1 µg/mL
- Cross-reactivity [1]: <1
- TEF [2]: 0.1

Compound: Clc1cc2oc3c(Cl)c(Cl)c(Cl)c(Cl)c3c2cc1Cl [1,2,3,4,7,8-HxCDF]
- IC50 [1]: >0.1 µg/mL
- Cross-reactivity [1]: <1
- Cross-reactivity [3]: 45.9%
- TEF [2]: 0.1

Compound: Clc1cc2c(c(Cl)c1Cl)Oc1cc(Cl)c(Cl)c(Cl)c1O2 [1,2,3,6,7,8-HxCDD]
- reactivity (cross-reactivity) of the antibody [1]: 93%
- IC50 [1]: 0.000984 µg/mL (≈ 0.00252 µM)
- Cross-reactivity [1]: 93
- TEF [2]: 0.1

Compound: Clc1cc2c(oc3cc(Cl)c(Cl)c(Cl)c32)c(Cl)c1Cl [1,2,3,6,7,8-HxCDF]
- IC50 [1]: >0.1 µg/mL
- Cross-reactivity [1]: <1
- Cross-reactivity [3]: 36.6%
- TEF [2]: 0.1

Compound: Clc1cc2c(c(Cl)c1Cl)Oc1c(cc(Cl)c(Cl)c1Cl)O2 [1,2,3,7,8,9-HxCDD]
- reactivity (cross-reactivity) of the antibody [1]: 86%
- IC50 [1]: 0.00106 µg/mL (≈ 0.00271 µM)
- Cross-reactivity [1]: 86
- Cross-reactivity [3]: 39.8%
- TEF [2]: 0.1

Compound: Clc1cc2oc3cc(Cl)c(Cl)c(Cl)c3c2c(Cl)c1Cl [1,2,3,7,8,9-HxCDF]
- IC50 [1]: 0.0355 µg/mL (≈ 0.0947 µM)
- Cross-reactivity [1]: 3
- Cross-reactivity [3]: 42.7%
- TEF [2]: 0.1

Compound: Clc1cc2c(cc1Cl)Oc1c(cc(Cl)c(Cl)c1Cl)O2 [1,2,3,7,8-PeCDD]
- IC50 [1]: 0.0296 µg/mL (≈ 0.083 µM)
- Cross-reactivity [1]: 3
- TEF [2]: 1

Compound: Clc1cc2oc3cc(Cl)c(Cl)c(Cl)c3c2cc1Cl [1,2,3,7,8-PeCDF]
- IC50 [1]: 0.000915 µg/mL (≈ 0.00269 µM)
- Cross-reactivity [1]: 100
- TEF [2]: 0.05

Compound: Clc1cc(-c2cc(Cl)c(Cl)c(Cl)c2Cl)cc(Cl)c1Cl [2,3,3′,4,4′,5,5′-HpCB]
- IC50 [1]: >0.1 µg/mL
- Cross-reactivity [1]: <1
- TEF [2]: 0.0001

Compound: Clc1ccc(-c2cc(Cl)c(Cl)c(Cl)c2Cl)cc1Cl [2,3,3′,4,4′,5-HxCB]
- IC50 [1]: >0.1 µg/mL
- Cross-reactivity [1]: <1
- TEF [2]: 0.0005

Compound: Clc1cc(-c2ccc(Cl)c(Cl)c2Cl)cc(Cl)c1Cl [2,3,3′,4,4′,5′-HxCB]
- IC50 [1]: >0.1 µg/mL
- Cross-reactivity [1]: <1
- TEF [2]: 0.0005

Compound: Clc1ccc(-c2ccc(Cl)c(Cl)c2Cl)cc1Cl [2,3,3′,4,4′-PeCB]
- IC50 [1]: >0.1 µg/mL
- Cross-reactivity [1]: <1
- TEF [2]: 0.0001

Compound: Clc1ccc(-c2cc(Cl)c(Cl)c(Cl)c2Cl)cc1 [2,3,4,4′,5-PeCB]
- IC50 [1]: >0.1 µg/mL
- Cross-reactivity [1]: <1
- TEF [2]: 0.0005

Compound: Clc1cc2c(oc3c(Cl)c(Cl)c(Cl)cc32)c(Cl)c1Cl [2,3,4,6,7,8-HxCDF]
- reactivity (cross-reactivity) of the antibody [1]: 93%
- IC50 [1]: 0.000989 µg/mL (≈ 0.00264 µM)
- Cross-reactivity [1]: 93
- Cross-reactivity [3]: 43.8%
- TEF [2]: 0.1

Compound: Clc1cc2oc3c(Cl)c(Cl)c(Cl)cc3c2cc1Cl [2,3,4,7,8-PeCDF, 2,3,4,7,8-pentachlorodibenzofuran]
- reactivity (cross-reactivity) of the antibody [1]: 16%
- IC50 [1]: 0.00586 µg/mL (≈ 0.0172 µM)
- Cross-reactivity [1]: 16
- detectable concentration in the assay system [4]: ≤ 1 ng/mL

Compound: Clc1cc2c(cc1Cl)Oc1cc(Cl)c(Cl)cc1O2 [2,3,7,8-TeCDD, 2,3,7,8-tetrachlorodibenzo-p-dioxin]
- reactivity (cross-reactivity) of the antibody [1]: 13%
- IC50 [1]: 0.0072 µg/mL (≈ 0.0224 µM)
- Cross-reactivity [1]: 13
- TEF [2]: 1

Compound: Clc1cc2oc3cc(Cl)c(Cl)cc3c2cc1Cl [2,3,7,8-TeCDF]
- IC50 [1]: 0.0123 µg/mL (≈ 0.0402 µM)
- Cross-reactivity [1]: 7
- TEF [2]: 0.1

Compound: Clc1cc(Cl)c(-c2cc(Cl)c(Cl)c(Cl)c2)cc1Cl [2,3′,4,4′,5,5′-HxCB]
- IC50 [1]: >0.1 µg/mL
- Cross-reactivity [1]: <1
- TEF [2]: 0.00001

Compound: Clc1ccc(-c2cc(Cl)c(Cl)cc2Cl)cc1Cl [2,3′,4,4′,5-PeCB]
- IC50 [1]: >0.1 µg/mL
- Cross-reactivity [1]: <1
- TEF [2]: 0.0001

Compound: Clc1ccc(-c2cc(Cl)c(Cl)c(Cl)c2)c(Cl)c1 [2′,3,4,4′,5-PeCB]
- IC50 [1]: >0.1 µg/mL
- Cross-reactivity [1]: <1
- TEF [2]: 0.0001

Compound: Clc1cc(-c2cc(Cl)c(Cl)c(Cl)c2)cc(Cl)c1Cl [3,3′,4,4′,5,5′-HxCB]
- IC50 [1]: 0.0629 µg/mL (≈ 0.174 µM)
- Cross-reactivity [1]: 1
- TEF [2]: 0.01

Compound: Clc1ccc(-c2cc(Cl)c(Cl)c(Cl)c2)cc1Cl [3,3′,4,4′,5-PeCB]
- IC50 [1]: 0.0537 µg/mL (≈ 0.165 µM)
- Cross-reactivity [1]: 2
- TEF [2]: 0.1

Compound: Clc1ccc(-c2ccc(Cl)c(Cl)c2)cc1Cl [3,3′,4,4′-TeCB]
- IC50 [1]: >0.1 µg/mL
- Cross-reactivity [1]: <1
- TEF [2]: 0.0001

Compound: Clc1ccc(-c2cc(Cl)c(Cl)c(Cl)c2)cc1 [3,4,4′,5-TeCB]
- IC50 [1]: >0.1 µg/mL
- Cross-reactivity [1]: <1
- TEF [2]: 0.0001

Compound: Clc1c(Cl)c(Cl)c2c(c1Cl)Oc1c(Cl)c(Cl)c(Cl)c(Cl)c1O2 [OCDD]
- IC50 [1]: >0.1 µg/mL
- Cross-reactivity [1]: <1
- TEF [2]: 0.0001

Compound: Clc1c(Cl)c(Cl)c2c(oc3c(Cl)c(Cl)c(Cl)c(Cl)c32)c1Cl [OCDF]
- IC50 [1]: >0.1 µg/mL
- Cross-reactivity [1]: <1
- TEF [2]: 0.0001
